Key:
[1] = tested on: fine wrinkle model; test: Anti-wrinkle effects in fine wrinkle model (visual wrinkle score); type: in vivo; details: 1 mM in 50% aqueous ethanol, 100 μl applied to skin three times a week for two weeks; scored two weeks later; higher scores indicate deeper wrinkles
Method: The anti-wrinkle effects of the heparanase inhibitor, suramin, were assessed using a fine wrinkle model (Non-Patent Document 2).
Suramin was dissolved in 50% aqueous ethanol solution to a concentration of 1 mM and applied in 100 μl aliquots to skin of the fine wrinkle model three times a week for a period of two weeks during which time fine wrinkles are formed. A 50% aqueous ethanol solution was used as a solvent control.
The formation of wrinkles two weeks later was scored by visual evaluation. Wrinkle formation was scored in increments of 0.5 based on evaluation criteria consisting of: no wrinkles: 0, slight wrinkles: 1, obvious wrinkles: 2 and deep wrinkles: 3. Higher scores indicate deeper wrinkles. In contrast to the mean value of the scores of the solvent control being 0.78, that for suramin was 0.31, thereby indicating significant wrinkle inhibitory effects as compared with the solvent control. Namely, the application of suramin at 1 mM significant inhibited wrinkle formation as compared with 50% ethanol applied as a solvent control. […]
The formation of wrinkles two weeks later was scored by visual evaluation. Wrinkle formation was scored in increments of 0.5 based on evaluation criteria consisting of: no wrinkles: 0, slight wrinkles: 1, obvious wrinkles: 2 and deep wrinkles: 3. […]

[2] = tested on: basement membrane heparan sulfate chains; test: Immunostaining of epidermal basement membrane heparan sulfate chains in skin of fine wrinkle model; type: in vivo; details: skin coated with 1 mM compound versus 50% ethanol solvent control
From the text: Next, heparan sulfate chains were immunostained for the skin after 2 days, 1 week and 2 weeks, and the staining results are shown in FIG. 4. Although staining of basement membrane heparan sulfate chains decreased from 2 days to 1 week in skin of the solvent control, stainability of basement membrane heparan sulfate chains was protected by application of suramin.
Next, heparan sulfate chains and perlecan core protein in the skin were immunostained, and the staining results are shown in FIG. 6. Although staining of basement membrane heparan sulfate chains decreased considerably for the solvent control, stainability of basement membrane heparan sulfate chains was protected in the 1-[4-(1H-benzoimidazol-2-yl)-phenyl]-3-[4-(1H-benzoimidazol-2-yl)-phenyl]-urea application group.

[3] = molecular target: T1, heparanase (Homo sapiens, UniProt Q9Y251); test: Primary evaluation: heparanase activity inhibition, A431 cell extract on biotinylated heparan sulfate-immobilized plate; type: biochemical; details: 2 hours at 37° C., DMSO control
T1 construct: the resulting supernatant was used as a cell extract; endogenous in cells; host or cells: A431 cells (lysate supernatant)
T1 sequence (Q9Y251 158-543 limits assumed): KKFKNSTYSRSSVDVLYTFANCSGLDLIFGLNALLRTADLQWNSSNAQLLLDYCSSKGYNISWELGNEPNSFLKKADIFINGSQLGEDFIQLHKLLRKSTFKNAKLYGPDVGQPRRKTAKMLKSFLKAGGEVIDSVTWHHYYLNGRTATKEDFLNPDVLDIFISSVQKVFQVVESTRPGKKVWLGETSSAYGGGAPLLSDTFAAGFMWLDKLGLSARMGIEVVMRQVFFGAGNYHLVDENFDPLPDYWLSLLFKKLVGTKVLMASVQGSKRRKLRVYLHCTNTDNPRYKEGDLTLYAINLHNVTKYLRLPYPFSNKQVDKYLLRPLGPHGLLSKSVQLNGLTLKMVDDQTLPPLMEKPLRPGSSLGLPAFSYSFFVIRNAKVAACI
T1 sequence (Q9Y251 36-109 limits assumed): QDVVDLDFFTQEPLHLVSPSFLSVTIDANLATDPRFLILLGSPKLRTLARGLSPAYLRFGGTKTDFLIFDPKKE
From the text: As will be described in detail in the following examples, primary evaluation of heparanase activity can be carried out by, for example, immobilizing biotinylated heparan sulfate in a 96-well plate, allowing the heparanase to act in the presence of a pharmaceutical preparation or herbal medicine, and evaluating the activity of heparanase as the amount of the decrease in biotinylated heparan sulfate by allowing peroxidase-labeled avidin to act thereon and developing the resulting color. […] Secondary evaluation can be carried out by using HT1080 cells expressing heparanase. […] Therefore, heparanase inhibitory activity can be evaluated on the basis of the degree of migration (recovery) at the scratched site by adding an evaluation reagent.
A431 cells (invasive human epithelial carcinoma cells) were cultured in DMEM medium containing 10% serum. […] The amount of protein in the cell extract was measured with a BCA Protein Assay Kit (Pierce, CA46141). […]
Heparanase activity was calculated from a calibration curve of the A431 cell extract, and inhibition rate (%) was indicated as a relative value to a reference (control) to which the cell extract was not added. […]
The plant extracts were evaluated for heparanase inhibitory effects in accordance with the aforementioned primary and secondary evaluation methods using sample solutions of the plant extracts instead of 4-(1H-benzoimidazol-2-yl)-phenylamine.

[4] = tested on: HT1080 cells; test: Secondary evaluation: wound healing assay using HT1080 cells; type: cell-based; details: HT1080 cells, 1, 10, 100 μM, DMSO control
From the text: As will be described in detail in the following examples, primary evaluation of heparanase activity can be carried out by, for example, immobilizing biotinylated heparan sulfate in a 96-well plate, allowing the heparanase to act in the presence of a pharmaceutical preparation or herbal medicine, and evaluating the activity of heparanase as the amount of the decrease in biotinylated heparan sulfate by allowing peroxidase-labeled avidin to act thereon and developing the resulting color. […] Secondary evaluation can be carried out by using HT1080 cells expressing heparanase. When HT1080 cells are scratched after having been cultured to confluency, cells are known to migrate in a heparanase activity-dependent manner (see Ishida, K., et al., Mol. Cancer Ther., 2004, 3(9): 1069-1077 (Non-Patent Document 4)). Therefore, heparanase inhibitory activity can be evaluated on the basis of the degree of migration (recovery) at the scratched site by adding an evaluation reagent.
HT1080 cells were inoculated into a 6-well plate at 500,000 cells/well, and the medium was replaced with that containing each drug 24 hours later followed by scratching in the vertical direction with a 1000 μL tip. Micrographs were taken 6 hours later and changes at the scratched site were observed. […] DMSO was allowed to act as a control instead of the candidate drugs.

O=C(Nc1ccc(-c2nc3ccccc3[nH]2)cc1)Nc1ccc(-c2nc3ccccc3[nH]2)cc1 [1-[4-(1H-benzoimidazol-2-yl)-phenyl]-3-[4-(1H-benzoimidazol-2-yl)-phenyl]-urea]
mean value of wrinkle formation scores (visual evaluation; 0 no wrinkles to 3 deep wrinkles) [1]: 0.36
stainability of basement membrane heparan sulfate chains (immunostaining) [2]: protected

Nc1ccc(-c2nc3ccccc3[nH]2)cc1 [4-(1H-benzoimidazol-2-yl)-phenylamine]
IC50 [3]: 256 µM
cell migration activity at scratched site [4]: decreased in a concentration-dependent manner

Cc1ccc(C(=O)Nc2ccc(S(=O)(=O)O)c3cc(S(=O)(=O)O)cc(S(=O)(=O)O)c23)cc1NC(=O)c1cccc(NC(=O)Nc2cccc(C(=O)Nc3cc(C(=O)Nc4ccc(S(=O)(=O)O)c5cc(S(=O)(=O)O)cc(S(=O)(=O)O)c45)ccc3C)c2)c1 [suramin]
mean value of wrinkle formation scores (visual evaluation; 0 no wrinkles to 3 deep wrinkles) [1]: 0.31
stainability of basement membrane heparan sulfate chains (immunostaining) [2]: protected

— US20150335692A1, “ORAL PREPARATION, INJECTION PREPARATION, EXTERNAL SKIN PREPARATION AND COSMETIC METHOD FOR PREVENTING OR IMPROVING WRINKLES” (Shiseido Company, Ltd., priority 2008, published 2015)
